Assay results published in patent publication US20250304563A1, “ACTIVATORS OF EFFECTOR T CELLS” (Orum Therapeutics, Inc., priority 2022, published 2025).

Assays:
Human primary T cells [1] = test: T cell activation: secreted IFN-y; type: cell-based; conditions: 48 hours, fold over background normalized to Compound 141A; for IFN-y 1 nM: 1 nM compound; for IFN-y 10 nM: 10 nM compound; for IFN-y 100 nM: 100 nM compound
Method in brief: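 Values are binned ranges (A–D) of fold increase over anti-CD3/CD28 background, normalized to a reference compound, for IFN-γ in supernatants measured by bead array. Pan-T cells from donor PBMC or LeukoPaks were stimulated on anti-CD3-coated wells (10 μg/mL coating) in serum-free medium with compound for 48 h at 37 °C.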

Human primary T cells [2] = test: T cell activation: CD69 surface expression by flow cytometry; type: cell-based; conditions: fold over anti-CD3 stimulated background normalized to Compound 141A; for CD69 1 nM: 1 nM compound; for CD69 10 nM: 10 nM compound; for CD69 100 nM: 100 nM compound
Method in brief: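 Read-out is flow-cytometric CD69 surface staining, expressed as fold increase over anti-CD3-stimulated background and normalized to Compound 141A. Human pan T cells from PBMC or LeukoPaks were plated on OKT3-coated wells in serum-free XVivo-15. Compound dilutions were added for 48 h at 37° C, 5% CO2.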

[3] = target: Cbl-b (36-427 aa truncated form, N-terminus Avi-tag) (Homo sapiens (Human), UniProt Q13191); test: Cbl-b binding: TR-FRET displacement of BODIPY-FL probe
Method in brief: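 IC50 from loss of terbium–BODIPY-FL TR-FRET signal as compounds compete off a fluorescent Cbl-b inhibitor probe (1 uM) for 1 h at RT. Protein: N-Avi-tagged human Cbl-b 36-427 on streptavidin-terbium, 20 mM HEPES pH 7.5 buffer.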

Human primary T cells [4] = test: T cell activation: secreted IL-2; type: cell-based; conditions: 48 hours, fold over background normalized to Compound 141A; for IL-2 1 nM: 1 nM compound; for IL-2 10 nM: 10 nM compound; for IL-2 100 nM: 100 nM compound
Method in brief: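 IL-2 values are fold over anti-CD3/CD28 background, normalized to a reference compound and sorted into ranges. They come from supernatants of human pan-T cells captured on anti-CD3-coated plates and exposed 48 h, 37° C., to duplicate compound dilutions, measured with cytometric beads.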

Chain of Cbl-b (36-427 aa truncated form, N-terminus Avi-tag) (Q13191 36-427): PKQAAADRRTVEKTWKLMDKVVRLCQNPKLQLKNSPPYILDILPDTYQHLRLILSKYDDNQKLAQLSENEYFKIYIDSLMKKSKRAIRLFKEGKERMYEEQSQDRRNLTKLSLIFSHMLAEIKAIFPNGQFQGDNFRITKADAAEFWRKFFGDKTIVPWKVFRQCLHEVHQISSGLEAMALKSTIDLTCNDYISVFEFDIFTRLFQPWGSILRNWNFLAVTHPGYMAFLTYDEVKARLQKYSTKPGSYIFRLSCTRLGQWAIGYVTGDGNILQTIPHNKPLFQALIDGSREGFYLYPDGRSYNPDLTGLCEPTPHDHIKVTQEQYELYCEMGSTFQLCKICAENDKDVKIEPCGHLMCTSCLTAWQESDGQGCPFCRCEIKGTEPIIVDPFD

CSc1cc(CN2CCC[C@H](C)C2)cc2c1CN(c1cc(C3(Cc4nncn4C)COC3)cc(N)n1)C2=O [Compound 173]
IFN-y 1 nM (Human primary T cells [1]): C (values between 0.10 and 0.30: range “C”)
IFN-y 10 nM (Human primary T cells [1]): B (values between 0.31 and 1.00: range “B;”)
IFN-y 100 nM (Human primary T cells [1]): B (values between 0.31 and 1.00: range “B;”)
CD69 1 nM (Human primary T cells [2]): C (values between 0.30 and 0.60: range “C”)
CD69 10 nM (Human primary T cells [2]): C (values between 0.30 and 0.60: range “C”)
CD69 100 nM (Human primary T cells [2]): C (values between 0.30 and 0.60: range “C”)
IC50 [3]: 1 to 5 nM
IL-2 1 nM (Human primary T cells [4]): D (values between 0.01 and 0.09: range “D.”)
IL-2 10 nM (Human primary T cells [4]): D (values between 0.01 and 0.09: range “D.”)
IL-2 100 nM (Human primary T cells [4]): D (values between 0.01 and 0.09: range “D.”)

CSc1cc(CN2CCC[C@H](C)C2)cc2c1CN(c1cc([C@]3(c4nncn4C)C[C@H](C)C3)cc(N)n1)C2=O [Compound 174, 2-{6-amino-4-[(1r,3s)-3-methyl-1-(4-methyl-1,2,4-triazol-3-yl)cyclobutyl]pyridin-2-yl}-6-{[(3S)-3-methylpiperidin-1-yl]methyl}-4-(methylsulfanyl)-3H-isoindol-1-one]
IFN-y 1 nM (Human primary T cells [1]): B (values between 0.31 and 1.00: range “B;”)
IFN-y 10 nM (Human primary T cells [1]): B (values between 0.31 and 1.00: range “B;”)
IFN-y 100 nM (Human primary T cells [1]): B (values between 0.31 and 1.00: range “B;”)
CD69 1 nM (Human primary T cells [2]): C (values between 0.30 and 0.60: range “C”)
CD69 10 nM (Human primary T cells [2]): C (values between 0.30 and 0.60: range “C”)
CD69 100 nM (Human primary T cells [2]): B (values between 0.61 and 0.80: range “B;”)
IC50 [3]: 5.01 to 20 nM
IL-2 1 nM (Human primary T cells [4]): D (values between 0.01 and 0.09: range “D.”)
IL-2 10 nM (Human primary T cells [4]): D (values between 0.01 and 0.09: range “D.”)
IL-2 100 nM (Human primary T cells [4]): B (values between 0.31 and 0.79: range “B”)

CCNc1cc(C2(Cc3nncn3C)COC2)cc(N2Cc3c(SC)cc(CN4CCCCC4)cc3C2=O)n1 [Compound 175, 2-[6-(ethylamino)-4-{3-[(4-methyl-1,2,4-triazol-3-yl)methyl]oxetan-3-yl}pyridin-2-yl]-4-(methylsulfanyl)-6-(piperidin-1-ylmethyl)-3H-isoindol-1-one]
IFN-y 1 nM (Human primary T cells [1]): C (values between 0.10 and 0.30: range “C”)
IFN-y 10 nM (Human primary T cells [1]): B (values between 0.31 and 1.00: range “B;”)
IFN-y 100 nM (Human primary T cells [1]): B (values between 0.31 and 1.00: range “B;”)
CD69 1 nM (Human primary T cells [2]): C (values between 0.30 and 0.60: range “C”)
CD69 10 nM (Human primary T cells [2]): C (values between 0.30 and 0.60: range “C”)
CD69 100 nM (Human primary T cells [2]): B (values between 0.61 and 0.80: range “B;”)
IC50 [3]: 1 to 5 nM
IL-2 1 nM (Human primary T cells [4]): D (values between 0.01 and 0.09: range “D.”)
IL-2 10 nM (Human primary T cells [4]): D (values between 0.01 and 0.09: range “D.”)
IL-2 100 nM (Human primary T cells [4]): C (values between 0.10 and 0.30: range “C”)

CCNc1cc([C@]2(c3nncn3C)C[C@H](C)C2)cc(N2Cc3ncc(CN4CCC[C@H](C)C4)cc3C2=O)n1 [Compound 176, 6-[6-(ethylamino)-4-[(1r,3s)-3-methyl-1-(4-methyl-1,2,4-triazol-3-yl)cyclobutyl]pyridin-2-yl]-3-{[(3S)-3-methylpiperidin-1-yl]methyl}-7H-pyrrolo[3,4-b]pyridin-5-one]
IFN-y 1 nM (Human primary T cells [1]): C (values between 0.10 and 0.30: range “C”)
IFN-y 10 nM (Human primary T cells [1]): B (values between 0.31 and 1.00: range “B;”)
IFN-y 100 nM (Human primary T cells [1]): B (values between 0.31 and 1.00: range “B;”)
CD69 1 nM (Human primary T cells [2]): C (values between 0.30 and 0.60: range “C”)
CD69 10 nM (Human primary T cells [2]): C (values between 0.30 and 0.60: range “C”)
CD69 100 nM (Human primary T cells [2]): B (values between 0.61 and 0.80: range “B;”)
IC50 [3]: 5.01 to 20 nM
IL-2 1 nM (Human primary T cells [4]): D (values between 0.01 and 0.09: range “D.”)
IL-2 10 nM (Human primary T cells [4]): C (values between 0.10 and 0.30: range “C”)
IL-2 100 nM (Human primary T cells [4]): B (values between 0.31 and 0.79: range “B”)

CCNc1cc(C2(c3nncn3C)CC(C)C2)cc(N2Cc3c(SC)cc(CN4CCC[C@H](C)C4)cc3C2=O)n1 (stereo partly drawn) [Compound 181, 2-[6-(ethylamino)-4-[(1r,3s)-3-methyl-1-(4-methyl-1,2,4-triazol-3-yl)cyclobutyl]pyridin-2-yl]-6-{[(3S)-3-methylpiperidin-1-yl]methyl}-4-(methylsulfanyl)-3H-isoindol-1-one]
IFN-y 1 nM (Human primary T cells [1]): B (values between 0.31 and 1.00: range “B;”)
IFN-y 10 nM (Human primary T cells [1]): B (values between 0.31 and 1.00: range “B;”)
IFN-y 100 nM (Human primary T cells [1]): A (fold over background between 1.10 and 2.00: range “A”)
CD69 1 nM (Human primary T cells [2]): C (values between 0.30 and 0.60: range “C”)
CD69 10 nM (Human primary T cells [2]): B (values between 0.61 and 0.80: range “B;”)
CD69 100 nM (Human primary T cells [2]): X (fold over background values between 1.11 and 1.6: range “X”)
IC50 [3]: 1 to 5 nM
IL-2 1 nM (Human primary T cells [4]): D (values between 0.01 and 0.09: range “D.”)
IL-2 10 nM (Human primary T cells [4]): C (values between 0.10 and 0.30: range “C”)
IL-2 100 nM (Human primary T cells [4]): A (between 0.80 and 1.40: range “A”)

C[C@H]1CCCN(Cc2cc3c(c(C(F)(F)F)c2)CN(c2cc(C4(Cc5nncn5C)COC4)cc(NCc4c[nH]nn4)n2)C3=O)C1.O=C(O)C(F)(F)F [Compound 182, (S)-2-(6-(((1H-1,2,3-triazol-4-yl)methyl)amino)-4-(3-((4-methyl-4H-1,2,4-triazol-3-yl)methyl)oxetan-3-yl)pyridin-2-yl)-6-((3-methylpiperidin-1-yl)methyl)-4-(trifluoromethyl)isoindolin-1-one; trifluoroacetic acid]
IFN-y 1 nM (Human primary T cells [1]): C (values between 0.10 and 0.30: range “C”)
IFN-y 10 nM (Human primary T cells [1]): C (values between 0.10 and 0.30: range “C”)
IFN-y 100 nM (Human primary T cells [1]): B (values between 0.31 and 1.00: range “B;”)
CD69 1 nM (Human primary T cells [2]): C (values between 0.30 and 0.60: range “C”)
CD69 10 nM (Human primary T cells [2]): C (values between 0.30 and 0.60: range “C”)
CD69 100 nM (Human primary T cells [2]): C (values between 0.30 and 0.60: range “C”)
IC50 [3]: 5.01 to 20 nM
IL-2 1 nM (Human primary T cells [4]): D (values between 0.01 and 0.09: range “D.”)
IL-2 10 nM (Human primary T cells [4]): D (values between 0.01 and 0.09: range “D.”)
IL-2 100 nM (Human primary T cells [4]): D (values between 0.01 and 0.09: range “D.”)

Cn1cnnc1CC1(c2cc(NCCC#N)nc(N3Cc4c(cc(CN5CCN(c6nccs6)CC5)cc4C(F)(F)F)C3=O)c2)COC1.O=C(O)C(F)(F)F [Compound 186, 3-((4-(3-((4-methyl-4H-1,2,4-triazol-3-yl)methyl)oxetan-3-yl)-6-(1-oxo-6-((4-(thiazol-2-yl)piperazin-1-yl)methyl)-4-(trifluoromethyl)isoindolin-2-yl)pyridin-2-yl)amino)propanenitrile; trifluoroacetic acid]
IFN-y 1 nM (Human primary T cells [1]): C (values between 0.10 and 0.30: range “C”)
IFN-y 10 nM (Human primary T cells [1]): C (values between 0.10 and 0.30: range “C”)
IFN-y 100 nM (Human primary T cells [1]): B (values between 0.31 and 1.00: range “B;”)
CD69 1 nM (Human primary T cells [2]): C (values between 0.30 and 0.60: range “C”)
CD69 10 nM (Human primary T cells [2]): C (values between 0.30 and 0.60: range “C”)
CD69 100 nM (Human primary T cells [2]): C (values between 0.30 and 0.60: range “C”)
IC50 [3]: 5.01 to 20 nM
IL-2 1 nM (Human primary T cells [4]): D (values between 0.01 and 0.09: range “D.”)
IL-2 10 nM (Human primary T cells [4]): D (values between 0.01 and 0.09: range “D.”)
IL-2 100 nM (Human primary T cells [4]): D (values between 0.01 and 0.09: range “D.”)
